Legend:
Assay type in all cases: cell-based
hGPR17L-V96M = molecular target: T1, hGPR17L-V96M (Homo sapiens, UniProt Q13304, V96M); assay: Calcium flux in GLUTag cells expressing hGPR17L-V96M; details: for Mean Diff. (Tukey's multiple comparisons test, Figure 4C): hGPR17L-V96M
T1 construct: host or cells: GLUTag cells, adenoviral transduction
Protocol: GLUTag cells were maintained in Dulbecco’s Modified Eagle Medium (DMEM) supplemented with 10% fetal bovine serum and 1% penicillin–streptomycin in a humidified incubator at 37 °C and 5% CO2. For adenovirus transduction, GLUTag cells were seeded into poly-D-lysine coated 96-well plates or 4-chamber slides. The next day, cells were transduced with adenoviruses (100–1250 viral particles per cell at time of seeding) as indicated. After 24–30 h, adenovirus-containing media was changed to serum-free growth media for overnight serum starvation. The following day, GLUTag cells were used for cAMP or calcium signaling assays, GLP-1 secretion assays, or immunostaining and imaging.
GLUTag cells were seeded into black, clear bottom, poly-D-lysine-coated 96-well plates. Cells were transduced and serum starved as specified above. Growth medium was then replaced with 100 μL/well assay buffer (HBSS, 20 mM HEPES, pH 7.4) and 100 μL/well Calcium 6 loading dye (R8190; Molecular Devices, San Jose, CA, USA). During dye loading, cells were incubated at 37 °C and 5% CO2 for 2 h. MDL29,951 or KCl was added to the wells and fluorescence (485 nm excitation, 525 nm emission, and 515 nm automatic emission cutoff) was measured using a Molecular Devices FlexStation3 (Molecular Devices) at 37 °C. For experiments with PTX, cells were pretreated with 100 ng/mL PTX overnight and 100 ng/mL PTX was included with Calcium 6 loading dye for calcium flux assays. For experiments with YM-254890, cells were pretreated for 30 min at 37 °C.

hGPR17S [1] = molecular target: T2, hGPR17S (Homo sapiens, UniProt Q13304); assay: Calcium mobilization in HEK293 cells transfected with hGPR17S
T2 construct: host or cells: HEK293 cells (ATCC CRL-1573), transient transfection
T2 sequence (Q13304 29-367): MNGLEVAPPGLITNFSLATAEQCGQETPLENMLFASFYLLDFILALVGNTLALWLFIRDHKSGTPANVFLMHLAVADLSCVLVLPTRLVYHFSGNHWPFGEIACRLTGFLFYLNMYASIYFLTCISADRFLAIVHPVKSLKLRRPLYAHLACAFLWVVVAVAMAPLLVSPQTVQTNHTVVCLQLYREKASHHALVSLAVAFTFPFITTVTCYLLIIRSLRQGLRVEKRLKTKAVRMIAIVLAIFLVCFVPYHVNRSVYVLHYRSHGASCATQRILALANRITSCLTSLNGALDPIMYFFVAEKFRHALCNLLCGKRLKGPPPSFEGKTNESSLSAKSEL
Protocol: (§1) HEK293 cells were maintained and transfected as previously described.
(§2) Calcium flux in HEK293 cells was measured as previously described.

mGPR17 [2] = molecular target: T3, mGPR17 (Mus musculus, UniProt Q6NS65); assay: Calcium mobilization in HEK293 cells transfected with mGPR17
T3 sequence (Q6NS65 whole entry): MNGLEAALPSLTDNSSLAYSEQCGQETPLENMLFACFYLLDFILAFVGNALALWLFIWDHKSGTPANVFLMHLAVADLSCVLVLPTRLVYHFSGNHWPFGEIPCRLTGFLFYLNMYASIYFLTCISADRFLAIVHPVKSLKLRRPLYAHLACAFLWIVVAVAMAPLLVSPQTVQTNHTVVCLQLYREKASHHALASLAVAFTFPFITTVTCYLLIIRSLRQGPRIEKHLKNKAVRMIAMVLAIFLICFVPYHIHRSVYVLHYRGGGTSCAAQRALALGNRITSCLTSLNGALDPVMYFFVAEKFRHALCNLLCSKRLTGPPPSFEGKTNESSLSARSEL
Protocol: as §1, §2

hGPR17S [3] = molecular target: T2, hGPR17S; assay: Membrane β-arrestin recruitment in HEK293 cells transfected with hGPR17S
Protocol: Membrane β-arrestin recruitment measurements were conducted using a luminescent membrane β-arrestin recruitment reporter assay. HEK293 cells were seeded into white, opaque, poly-D-lysine-coated 96-well plates and transiently transfected using Lipofectamine 3000 (Thermo Fisher Scientific, Waltham, MA, USA) according to the manufacturer’s protocol on the following day. At 48 h post-transfection, cells were washed twice with assay buffer (HBSS, 20 mM HEPES, pH 7.4) and allowed to equilibrate to room temperature for 15 min in assay buffer. Cells were then loaded with coelenterazine h (Nanolight Technology, Prolume Ltd., Lakeside, AZ, USA; 5 µM final concentration) for 5 min in the dark. Luminescence was read using a SpectraMax iD3 (Molecular Devices) with 1 s integration time. Baseline luminescence was read every 2 min for 6 min. Agonist was added and then luminescence was read every 2 min for 30 min.

mGPR17 [4] = molecular target: T3, mGPR17; assay: GloSensor cAMP in HEK293 cells transfected with mGPR17; set-up: host or cells: GLUTag cells, adenoviral transduction
Protocol: as §1
Live-cell, real-time cAMP measurements were performed using Promega (Madison, WI, USA) GloSensor cAMP luminescent biosensor technology. Glosensor cAMP experiments were conducted as previously described in GLUTag cells and HEK293 cells.

[5] = HEK293 mGPR17 versus hGPR17L and hGPR17S

T1 sequence (Q13304 whole entry V96M): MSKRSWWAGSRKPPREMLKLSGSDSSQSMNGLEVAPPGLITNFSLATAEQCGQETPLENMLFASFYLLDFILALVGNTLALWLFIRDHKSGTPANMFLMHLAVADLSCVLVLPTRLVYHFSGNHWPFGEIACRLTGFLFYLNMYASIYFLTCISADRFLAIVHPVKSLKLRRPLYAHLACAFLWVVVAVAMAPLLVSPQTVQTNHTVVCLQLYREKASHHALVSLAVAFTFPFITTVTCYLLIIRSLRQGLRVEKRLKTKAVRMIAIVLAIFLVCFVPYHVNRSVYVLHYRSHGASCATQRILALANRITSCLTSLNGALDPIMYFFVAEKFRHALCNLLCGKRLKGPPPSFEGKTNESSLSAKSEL

For `O=C(O)CCc1c(C(=O)O)[nH]c2cc(Cl)cc(Cl)c12` [MDL29,951], which “maximal calcium stimulation, % of that observed for hGPR17L-WT” value (hGPR17L-V96M; GLUTag hGPR17L-V96M) is on record?
Its value is 27 ± 1.5%.

What about the “pEC50, calcium mobilization” value (hGPR17L-V96M; GLUTag hGPR17L-V96M) of the same molecule?
The value was 6.24 ± 0.07.

What about the EC50 (hGPR17L-V96M; GLUTag hGPR17L-V96M, read-out: EC50, calcium mobilization) of the same molecule?
Its EC50 is 580 nM.

What about the “Mean Diff. (Tukey's multiple comparisons test, Figure 4C)” value (hGPR17L-V96M; log [MDL29,951] (M) -4.5 vs. Vehicle) of the same molecule?
Its value is 27.53.

What about the “Mean Diff. (Tukey's multiple comparisons test, Figure 4C)” value (hGPR17L-V96M; log [MDL29,951] (M) -5.0 vs. Vehicle) of the same molecule?
Its value is 24.23.

What about the “Mean Diff. (Tukey's multiple comparisons test, Figure 4C)” value (hGPR17L-V96M; log [MDL29,951] (M) -5.5 vs. Vehicle) of the same molecule?
Its value is 21.87.

And the “Mean Diff. (Tukey's multiple comparisons test, Figure 4C)” value (hGPR17L-V96M; log [MDL29,951] (M) -6.0 vs. Vehicle)?
Its value is 17.65.

And the “Mean Diff. (Tukey's multiple comparisons test, Figure 4C)” value (hGPR17L-V96M; log [MDL29,951] (M) -6.4 vs. Vehicle)?
Its value is 11.95.

And the “Mean Diff. (Tukey's multiple comparisons test, Figure 4C)” value (hGPR17L-V96M; log [MDL29,951] (M) -6.9 vs. Vehicle)?
Its value is 4.328.

And the “Mean Diff. (Tukey's multiple comparisons test, Figure 4C)” value (hGPR17L-V96M; log [MDL29,951] (M) -7.4 vs. Vehicle)?
The value was 1.581.

And the “Mean Diff. (Tukey's multiple comparisons test, Figure 4C)” value (hGPR17L-V96M; log [MDL29,951] (M) -7.9 vs. Vehicle)?
The value was 0.8859.

What about the “Mean Diff. (Tukey's multiple comparisons test, Figure 4C)” value (hGPR17L-V96M; log [MDL29,951] (M) -8.3 vs. Vehicle) of the same molecule?
The value was 0.4181.

What about the “Mean Diff. (Tukey's multiple comparisons test, Figure 4C)” value (hGPR17L-V96M; log [MDL29,951] (M) -8.8 vs. Vehicle) of the same molecule?
Its value is -0.03776.

And the “Calcium Emax (Mean Peak ΔF/F)” value (hGPR17S [1])?
The value was 1.84±0.11.

What about the “Calcium Potency (pEC50)” value (hGPR17S [1]) of the same molecule?
Its value is 7.37±0.10.

And the EC50 (hGPR17S [1]; read-out: Calcium Potency EC50)?
Its EC50 is 43 nM.

And the “Calcium Emax (Mean Peak ΔF/F)” value (mGPR17 [2]; HEK293 mGPR17)?
The value was 0.70±0.09.

And the “Calcium Potency (pEC50)” value (mGPR17 [2]; HEK293 mGPR17)?
Its value is 6.31±0.05.

And the EC50 (mGPR17 [2]; HEK293 mGPR17, read-out: Calcium Potency EC50)?
The EC50 was 490 nM.

And the “calcium response potency, fold less potent than human GPR17 isoforms” value (mGPR17 [2]; [5])?
The value was “approximately 10 fold”.

What about the “reduction in calcium efficacy as compared to human GPR17 isoforms” value (mGPR17 [2]; [5]) of the same molecule?
The value was over 60%.

And the “β-arrestin Emax (Peak ΔRLU/RLU)” value (hGPR17S [3])?
The value was 0.50±0.04.

And the “β-arrestin Potency (pEC50)” value (hGPR17S [3])?
Its value is 6.62±0.08.

What about the EC50 (hGPR17S [3]; read-out: β-arrestin Potency EC50) of the same molecule?
The EC50 was 240 nM.

What about the “cAMP Maximum Inhibition (% Inhibition)” value (mGPR17 [4]; 3 µM forskolin) of the same molecule?
Its value is 61±3.4%.

And the “cAMP Potency (pEC50) (reversal of inhibition)” value (mGPR17 [4]; 3 µM forskolin)?
Its value is 4.74±0.23.

What about the “cAMP Potency (pIC50)” value (mGPR17 [4]; 3 µM forskolin) of the same molecule?
The value was 8.48±0.20.

What about the EC50 (mGPR17 [4]; 3 µM forskolin, read-out: cAMP Potency EC50 (reversal of inhibition)) of the same molecule?
Its EC50 is 18000 nM.

And the IC50 (mGPR17 [4]; 3 µM forskolin-stimulated GloSensor cAMP, read-out: cAMP Potency IC50)?
The IC50 was 3.3 nM.

And the “cAMP Effect of 100 μM MDL (% Inhibition)” value (mGPR17 [4]; 100 μM MDL29,951, 3 µM forskolin)?
Its value is 45±6.3%.
